According to the CheMixHub viscosity set:

Test: xn = mol fraction of the nth substance listed

CCN(CC)CCO + CC(=O)N(C)C
viscosity [mPa·s], 101 kPa
Conditions | 298.15 K | 308.15 K | 318.15 K
x2 = 0.0505 | 2.874 | 2.164 | 1.669
x2 = 0.0999 | 2.683 | 1.999 | 1.517
x2 = 0.1499 | 2.512 | 1.849 | 1.374
x2 = 0.2004 | 2.356 | 1.715 | 1.254
x2 = 0.2997 | 2.089 | 1.502 | 1.08
x2 = 0.3997 | 1.871 | 1.314 | 0.956
x2 = 0.5008 | 1.677 | 1.207 | 0.861
x2 = 0.5998 | 1.51 | 1.103 | 0.792
x2 = 0.6995 | 1.357 | 1.015 | 0.747
x2 = 0.7989 | 1.2 | 0.932 | 0.721
x2 = 0.8997 | 1.046 | 0.854 | 0.7

NS(=O)(=O)O + CC(=O)N(C)C
298 K, 101.33 kPa
Conditions | viscosity [mPa·s]
x1 = 0.02772 | 1.19
x1 = 0.05584 | 1.637
x1 = 0.08283 | 2.268
x1 = 0.1075 | 3.241
x1 = 0.33 | 1.147
x1 = 0.67 | 1.499

CCN(CC)CCO + CC(=O)c1ccccc1
viscosity [mPa·s], 101.3 kPa
Conditions | x2 = 0.1124 | x2 = 0.2218 | x2 = 0.3282 | x2 = 0.4318 | x2 = 0.5327 | x2 = 0.631 | x2 = 0.7268 | x2 = 0.8201 | x2 = 0.9112
303.15 K | 3.131 | 2.954 | 2.778 | 2.601 | 2.424 | 2.247 | 2.07 | 1.894 | 1.717
313.15 K | 2.304 | 2.193 | 2.083 | 1.972 | 1.862 | 1.752 | 1.641 | 1.531 | 1.42
323.15 K | 1.458 | 1.446 | 1.434 | 1.419 | 1.401 | 1.381 | 1.36 | 1.335 | 1.311

CCCCC + CC(C)(C)O
viscosity [mPa·s], 101 kPa
Conditions | x1 = 0.1023 | x1 = 0.2048 | x1 = 0.3056 | x1 = 0.407 | x1 = 0.5068 | x1 = 0.606 | x1 = 0.7043 | x1 = 0.8042 | x1 = 0.902
293.15 K | 1.891 | 1.128 | 0.88 | 0.771 | 0.657 | 0.485 | 0.373 | 0.32 | 0.281
303.15 K | 1.992 | 1.162 | 1.011 | 1.064 | 0.954 | 0.769 | 0.616 | 0.49 | 0.36
313.15 K | 1.996 | 1.211 | 1.298 | 1.282 | 1.182 | 1.012 | 0.832 | 0.625 | 0.455

CCN(CC)S(C)(=O)=O + CC(C)(C)O
303.15 K, 101.33 kPa
Conditions | viscosity [mPa·s]
x1 = 0.0764 | 28570
x1 = 0.1463 | 26300
x1 = 0.2364 | 24820
x1 = 0.3171 | 24370
x1 = 0.3944 | 24530
x1 = 0.4712 | 25010
x1 = 0.5369 | 25790
x1 = 0.6062 | 26640
x1 = 0.6888 | 27960
x1 = 0.7621 | 30100
x1 = 0.8534 | 33040
x1 = 0.9381 | 36570

CS(C)=O + CC(C)=O
302.4 K, 101 kPa
Conditions | viscosity [mPa·s]
x1 = 0.0644 | 0.7031
x1 = 0.1924 | 0.809
x1 = 0.3826 | 1.14
x1 = 0.508 | 1.554
x1 = 0.6325 | 2.09
x1 = 0.8173 | 2.443

CCCCC + CC(C)O
298.15 K, 101 kPa
Conditions | viscosity [mPa·s]
x2 = 0.1128 | 0.262
x2 = 0.2204 | 0.281
x2 = 0.3273 | 0.323
x2 = 0.4232 | 0.385
x2 = 0.516 | 0.466
x2 = 0.6004 | 0.577
x2 = 0.6858 | 0.71
x2 = 0.7699 | 0.966
x2 = 0.8524 | 1.272
x2 = 0.9438 | 1.702

CCCCCCCCCC + CC(C)O
viscosity [mPa·s]
Conditions | 293.15 K | 298.15 K | 303.15 K | 308.15 K
101 kPa, x2 = 0.0571 | – | 0.839 | – | 0.757
101 kPa, x2 = 0.1237 | – | 0.837 | – | 0.74
101 kPa, x2 = 0.1714 | – | 0.838 | – | 0.726
101 kPa, x2 = 0.2709 | – | 0.851 | – | 0.735
101 kPa, x2 = 0.3525 | – | 0.867 | – | 0.746
101 kPa, x2 = 0.4184 | – | 0.888 | – | 0.762
101 kPa, x2 = 0.5253 | – | 0.945 | – | 0.8
101 kPa, x2 = 0.5786 | – | 0.986 | – | 0.824
101 kPa, x2 = 0.6537 | – | 1.059 | – | 0.882
101 kPa, x2 = 0.6971 | – | 1.113 | – | 0.909
101 kPa, x2 = 0.7895 | – | 1.261 | – | 1.013
101 kPa, x2 = 0.8717 | – | 1.457 | – | 1.152
101 kPa, x2 = 0.9099 | – | 1.583 | – | 1.246
101 kPa, x2 = 0.9453 | – | 1.727 | – | 1.35
101.32 kPa, x2 = 0.0412 | 0.896 | 0.831 | 0.773 | –
101.32 kPa, x2 = 0.0998 | 0.893 | 0.827 | 0.768 | –
101.32 kPa, x2 = 0.161 | 0.904 | 0.847 | 0.785 | –
101.32 kPa, x2 = 0.2938 | 0.916 | 0.845 | 0.777 | –
101.32 kPa, x2 = 0.3954 | 0.957 | 0.878 | 0.809 | –
101.32 kPa, x2 = 0.4988 | 1.006 | 0.916 | 0.836 | –
101.32 kPa, x2 = 0.5943 | 1.095 | 0.986 | 0.893 | –
101.32 kPa, x2 = 0.7019 | 1.241 | 1.11 | 0.994 | –
101.32 kPa, x2 = 0.8012 | 1.436 | 1.273 | 1.127 | –
101.32 kPa, x2 = 0.9017 | 1.759 | 1.538 | 1.348 | –
101.32 kPa, x2 = 0.951 | 2.014 | 1.742 | 1.515 | –

CS(C)=O + CC(C)O
viscosity [mPa·s]
Conditions | 298.15 K | 303.15 K | 308.15 K | 318.15 K
101 kPa, x1 = 0.0385 | 1.91 | 1.59 | 1.46 | –
101 kPa, x1 = 0.0787 | 1.77 | 1.49 | 1.36 | –
101 kPa, x1 = 0.1001 | – | 1.525 | – | –
101 kPa, x1 = 0.2059 | 1.51 | – | – | –
101 kPa, x1 = 0.2479 | 1.45 | 1.32 | 1.2 | –
101 kPa, x1 = 0.339 | 1.42 | 1.29 | – | –
101 kPa, x1 = 0.4639 | 1.45 | 1.32 | – | –
101 kPa, x1 = 0.5357 | 1.48 | 1.35 | 1.24 | –
101 kPa, x1 = 0.6422 | 1.55 | 1.42 | 1.32 | –
101 kPa, x1 = 0.7547 | 1.66 | 1.51 | 1.39 | –
101 kPa, x1 = 0.8134 | 1.72 | 1.57 | 1.45 | –
101 kPa, x1 = 0.8738 | 1.8 | 1.64 | 1.5 | –
101 kPa, x1 = 0.9005 | – | – | – | 1.285
101 kPa, x1 = 0.936 | 1.88 | 1.72 | – | –
101.3 kPa, x1 = 0.0788 | 1.742 | 1.576 | – | –
101.3 kPa, x1 = 0.1608 | 1.589 | 1.447 | – | –
101.3 kPa, x1 = 0.2475 | 1.473 | 1.358 | – | –
101.3 kPa, x1 = 0.3389 | 1.475 | 1.319 | – | –
101.3 kPa, x1 = 0.4347 | 1.451 | – | – | –
101.3 kPa, x1 = 0.5347 | 1.501 | 1.346 | – | –
101.3 kPa, x1 = 0.6423 | 1.597 | 1.406 | – | –
101.3 kPa, x1 = 0.7546 | 1.679 | 1.505 | – | –
101.3 kPa, x1 = 0.8737 | 1.828 | 1.622 | – | –
